# Measured values reported in patent US9145354B2, “Pharmaceutical compounds” (priority 2011, dated 2015).
# Read-outs that look alike come from different tables or passages of the source.
# How the values were obtained:
# [1] = system: Huh-7 cells persistently infected with the HCV subgenomic replicon; test: Replicon Assay (Example B), Alamar Blue cytotoxicity CC50; type: cell-based; conditions: lower value of the cell pair
# Procedure, shortened: (§1)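 Huh-7 cells carrying a luciferase/neo HCV subgenomic replicon (NS3–NS5b) were treated with semilog compound dilutions in triplicate (0.1% DMSO) for 72 h at 37 °C. Viability came from Alamar blue resazurin-to-resorufin fluorescence (535/590 nm) for CC50. EC50 came from Bright-Glo luciferase luminescence as a proxy for HCV RNA.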
# [2] = system: HCV subgenomic replicon in Huh-7 cells; test: Replicon Assay (Example B), luciferase readout EC50; type: cell-based
# Procedure, shortened: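 Huh-7 cells carrying a luciferase-neo HCV subgenomic replicon (NS3–NS5b) were treated with semilog compound dilutions (0.1% DMSO final), in triplicate, for 72 h at 37° C. EC50 came from Bright-Glo luciferase signal as a proxy for replicon RNA; viability was read by Alamar blue.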
# full length NS3/4a = full length NS3/4a (Hepatitis C virus genotype 1b (isolate BK) (HCV), UniProt P26663); test: NS3 Protease Assay (Example A), FRET-based; type: biochemical; conditions: HCV NS3 protease assay, full length NS3/4a; read-out: Assay A IC50 (μM) average
# Procedure, shortened: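 Full-length NS3/4a, made in-house, with an NS4A/B-derived peptide substrate carrying QXL520 quencher and 5-FAMsp fluorophore. Buffer 50 mM Tris pH8, 20 mM DTT, 1% CHAPS, 10% glycerol, 5% DMSO. Fluorescence followed 30 min at room temperature; IC50 from initial rates of replicate curves.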
# [3] = Replicon Assay (Example B), Alamar Blue cytotoxicity CC50; type: cell-based; conditions: human, lower value of the cell pair
# Procedure, shortened: as §1
# [4] = system: compound resistant HCV replicon variants in replicon bearing cells; test: Colony forming assay for compound resistant HCV replicon variants (Example C); type: cell-based; conditions: up to 10x EC50, 1 mg/ml geneticin, 24 days, coomasie blue staining
# Experimental: The existence of compound resistant HCV replicon quasispecies was analysed using colony forming assays, where the emergence of compound resistant HCV replicon variants can allow production sufficient replicon encoded neomycin for cellular survival in medium containing 1 mg/ml geneticin (Life Technologies). 4,000 replicon bearing cells were plated/well on 12 well plates, and allowed to adhere overnight. […] The medium used also contained 1 mg/ml geneticin. Plates were then incubated at 37° C. in an atmosphere of 5% CO2 and air for 24 days the medium/compound solution with 1 mg/ml gentamicin was replaced twice every 7 days, before staining surviving colonies with coomasie blue.
# [5] = Hepatitis C virus, Huh-7, replicon assay, luciferase readout, upper value of the cell pair, read-out: Assay B EC50
# Sequence of full length NS3/4a (P26663 1027-1657): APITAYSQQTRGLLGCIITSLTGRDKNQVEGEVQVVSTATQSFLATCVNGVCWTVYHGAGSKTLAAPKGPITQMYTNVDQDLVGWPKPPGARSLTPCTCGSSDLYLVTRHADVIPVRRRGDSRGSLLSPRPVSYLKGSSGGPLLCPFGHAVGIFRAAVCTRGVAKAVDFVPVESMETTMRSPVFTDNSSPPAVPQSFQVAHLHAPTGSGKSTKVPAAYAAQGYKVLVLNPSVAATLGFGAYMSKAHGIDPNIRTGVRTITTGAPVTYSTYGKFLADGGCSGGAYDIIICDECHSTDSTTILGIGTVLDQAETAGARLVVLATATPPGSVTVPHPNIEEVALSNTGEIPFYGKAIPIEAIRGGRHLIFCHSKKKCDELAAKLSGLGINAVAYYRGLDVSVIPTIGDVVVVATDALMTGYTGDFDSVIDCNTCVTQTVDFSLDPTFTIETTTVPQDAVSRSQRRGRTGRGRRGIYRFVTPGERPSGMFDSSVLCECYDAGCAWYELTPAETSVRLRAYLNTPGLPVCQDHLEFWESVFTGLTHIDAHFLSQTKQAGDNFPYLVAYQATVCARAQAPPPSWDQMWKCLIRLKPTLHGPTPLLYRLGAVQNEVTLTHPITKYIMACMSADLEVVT
Compound,CC50 [1] [µM],"EC50 ([2]; replicon assay, luciferase readout, upper value of the cell pair, read-out: Assay B EC50) [µM]",IC50 (full length NS3/4a) [µM],CC50 at 72 h [3] [µM],emergence of compound resistant colonies [4],"EC50 ([2]; Hepatitis C virus, Huh-7, pre-determined EC50 used to set concentrations in combination studies, read-out: EC50 (replicon)) [µM]","EC50 [2, 5] [µM]"
"CCC(NC1CCCC1C(N)=O)c1ccc(Cl)c(C(=O)c2ccc(N)nc2)c1F (racemic) [Example 126, 2-{[1-{3-[(6-aminopyridin-3-yl)carbonyl]-4-chloro-2-fluorophenyl}propyl]amino} cyclopentane-1-carboxamide]",> 3,0.091,–,–,–,–,–
"CC[C@@H](N[C@@H](C)CC(N)=O)c1ccc(Cl)c(C(=O)c2ccccc2)c1F [Example 84, (3S)-3-{[(1R)-1-(3-benzoyl-4-chloro-2-fluorophenyl)-propyl]-amino}butanamide]",–,–,0.057,> 3,prevented,0.006,0.006
"CC[C@@H](N[C@@H](C)CC(N)=O)c1ccc(OC)c(C(=O)c2ccc(N)c(C)c2)c1F [Example 273, (3S)-3-{[(1R)-1-{3-[(4-amino-3-methylphenyl)carbonyl]-2-fluoro-4-methoxyphenyl}propyl]amino}butanamide]",–,–,0.14,> 3,–,–,0.027
"COc1cc(C(=O)c2c(Cl)ccc([C@H](N[C@@H](C)CC(N)=O)C3CC3)c2F)ccc1C#N [Example 275, (3S)-3-{[(R)-{4-chloro-3-[(4-cyano-3-methoxyphenyl)carbonyl]-2-fluorophenyl}(cyclopropyl)methyl]amino}butanamide]",–,–,0.13,> 3,–,–,0.0067
"CC[C@@H](N[C@@H](C)CC(N)=O)c1ccc(OC)c(C(=O)c2cccc(C#N)c2)c1F [Example 276, (3S)-3-{[(1R)-1-{3-[(3-cyanophenyl)carbonyl]-2-fluoro-4-methoxyphenyl}propyl]amino}butanamide]",–,–,0.11,> 3,–,–,0.027
"C[C@@H](CC(N)=O)N[C@H](CC1CC1)c1ccc(Cl)c(C(=O)c2ccc(N)nc2)c1F [Example 278, (3S)-3-{[(1R)-1-{3-[(6-aminopyridin-3-yl)carbonyl]-4-chloro-2-fluorophenyl}-2-cyclopropylethyl]amino} butanamide]",–,–,0.5,> 3,–,–,0.027
"[2H]C([2H])([2H])C([2H])([2H])[C@@H](N[C@@H](C)CC(N)=O)c1ccc(Cl)c(C(=O)c2ccc3c(c2)OCC(=O)N3)c1F [Example 280, (3S)-3-{[(1R)-1-{4-chloro-2-fluoro-3-[(3-oxo-3,4-dihydro-2H-1,4-benzoxazin-7-yl)carbonyl]phenyl}(2,2,3,3,3-pentadeuteryl)propyl]amino} butanamide]",–,–,0.3,> 3,–,–,0.025
